Experimental data taken from US20060115815A1 (priority 2002, published 2006).
Read-outs that look alike come from different tables or passages of the source.

Experiments:
84V90M [1] = target: T1, 84V90M (Human immunodeficiency virus type 1 group M subtype B, UniProt P04585, I572V/L578M); assay: cell-based; design: species or system HIV-1
WT = assay: microbe, parasite or virus in culture; format: cell-based, HIV-1
48V54V82A [2] = assay: microbe, parasite or virus in culture; format: cell-based, HIV-1
30N82I88D [3] = assay: microbe, parasite or virus in culture; format: cell-based, HIV-1
46I50V = assay: microbe, parasite or virus in culture; format: cell-based, HIV-1
84V90M [4] = target: T1, 84V90M; assay: biochemical; design: species or system HIV-1
[5] = target: recombinant HIV-1 protease (Human immunodeficiency virus type 1 group M subtype B, UniProt P04585); assay: biochemical; format: biochemical; conditions: for Ki: read-out: Enzymatic assay Ki
[6] = test system: mutant HIV-1 with I84V/L90M mutations in the protease gene; format: cell-based; conditions: MT-4, 84V90M; read-out: Cell-based assay (MT-4) EC50/nM 84V90M
84V90M [7] = target: T1, 84V90M; assay: Enzymatic assay, IC50 against 84V90M mutant protease; format: biochemical, HIV-1
WT HIV-1 = assay: microbe, parasite or virus in culture; format: cell-based
30N82I88D [8] = test system: 30N82I88D; design: species or system HIV-1; conditions: MT-4, 30N82I88D; read-out: Cell-based assay (MT-4) EC50/nM 30N82I88D
48V54V82A [9] = test system: 48V54V82A; design: species or system HIV-1; conditions: MT-4, 48V54V82A; read-out: Cell-based assay (MT-4) EC50/nM 48V54V82A
[10] = test system: recombinant HIV-1 strains with resistance mutations in the protease gene; assay: Cross-resistance profile assay, whole panel of mutant viruses; format: cell-based; conditions: {}
[11] = Human immunodeficiency virus 1, read-out: Cell-based assay (MT-4) EC50 WT
[12] = MT-4, 48V54V82A, read-out: Cell-based assay (MT-4) EC50 48V54V82A
[13] = MT-4, 30N82I88D, read-out: Cell-based assay (MT-4) EC50 30N82I88D
[14] = MT-4, 84V90M, read-out: Cell-based assay (MT-4) EC50 84V90M
[15] = MT-4, 46I50V, read-out: Cell-based assay (MT-4) EC50 46I50V
[16] = 84V90M enzyme, read-out: Enzymatic assay 84V90M IC50
[17] = read-out: Cell-based assay (MT-4) EC50 WT
[18] = Human immunodeficiency virus 1, read-out: Cell-based assay (MT-4) EC50 30N82I88D
[19] = Human immunodeficiency virus 1, read-out: Cell-based assay (MT-4) EC50 48V54V82A
[20] = Human immunodeficiency virus 1, read-out: Cell-based assay (MT-4) EC50 46I50V
[21] = read-out: Enzymatic assay WT IC50/nM
[22] = MT-4, WT, read-out: Cell-based assay (MT-4) EC50/nM WT

CCOP(=O)(CCCNC(=O)c1cccc(CN2C(=O)N(Cc3ccc4[nH]nc(N)c4c3)C(Cc3ccccc3)C(O)C(O)C2Cc2ccccc2)c1)OCC (centres unmarked)
EC50 (84V90M [1]): 476 nM | EC50 (WT; [11]): 188 nM

CCOC(=O)C(C)OP(=O)(CCCNC(=O)c1cccc(CN2C(=O)N(Cc3ccc4[nH]nc(N)c4c3)[C@H](Cc3ccccc3)[C@H](O)[C@@H](O)[C@H]2Cc2ccccc2)c1)Oc1ccccc1 (some centres unmarked)
EC50 (48V54V82A [2]; [12]): 208 nM | EC50 (30N82I88D [3]; [13]): 678 nM | EC50 (84V90M [1]; [14]): 1280 nM | EC50 (46I50V; [15]): 209 nM | IC50 (84V90M [4]; [16]): 6.4 nM | Ki [5]: 0.112 nM | IC50 ([5]; read-out: Enzymatic assay WT IC50): 1.4 nM | EC50 (WT; [17]): 603 nM

Nc1cccc(CN2C(=O)N(Cc3cccc(C(=O)O)c3)C(Cc3ccccc3)C(O)C(O)C2Cc2ccccc2)c1 (centres unmarked)
EC50 (30N82I88D [3]; [18]): 3360 nM | EC50 (84V90M [1]): > 6000 nM | IC50 (84V90M [4]): 299 nM | EC50 (WT; [11]): 2340 nM

CCOP(=O)(CCCNC(=O)c1cccc(CN2C(=O)N(Cc3cccc(N)c3)C(Cc3ccccc3)C(O)C(O)C2Cc2ccccc2)c1)OCC (centres unmarked)
EC50 (48V54V82A [2]; [19]): 233 nM | EC50 (30N82I88D [3]; [18]): 171 nM | EC50 (84V90M [1]): 824 nM | EC50 (46I50V; [20]): 195 nM | IC50 (84V90M [4]): 29 nM | EC50 (WT; [11]): 176 nM

Nc1n[nH]c2ccc(CN3C(=O)N(Cc4cccc(C(=O)O)c4)[C@H](Cc4ccccc4)[C@H](O)[C@@H](O)[C@H]3Cc3ccccc3)cc12
EC50 (30N82I88D [3]; [13]): > 6000 nM | EC50 (84V90M [1]; [14]): > 6000 nM | IC50 (84V90M [4]; [16]): 27 nM

CCOP(=O)(CCCNC(=O)c1cccc(CN2C(=O)N(Cc3ccc4[nH]nc(N)c4c3)[C@H](Cc3ccccc3)[C@H](O)[C@@H](O)[C@H]2Cc2ccccc2)c1)OCC
EC50 (48V54V82A [2]; [12]): 240 nM | EC50 (30N82I88D [3]; [13]): 666 nM | EC50 (84V90M [1]; [14]): 476 nM | EC50 (46I50V; [15]): 319 nM | EC50 (WT; [17]): 188 nM

N#Cc1cc(CN2C(=O)N(Cc3cccc(OCc4ccccc4)c3)[C@H](Cc3ccccc3)[C@H](O)[C@@H](O)[C@H]2Cc2ccccc2)ccc1F
EC50 [6]: > 600 nM | Ki [5]: 1.43 nM | IC50 [5, 21]: 302 nM | IC50 (84V90M [7]): 114 nM

COc1ccc(CN2C(=O)N(Cc3ccc(O)cc3)[C@H](Cc3ccccc3)[C@H](O)[C@@H](O)[C@H]2Cc2ccccc2)cc1C#N
EC50 [6]: 3120 nM | Ki [5]: > 5 nM | IC50 [5, 21]: 130 nM | IC50 (84V90M [7]): 348 nM | EC50 (WT HIV-1; [22]): 2010 nM

O=C1N(Cc2ccccc2)[C@H](Cc2ccccc2)[C@H](O)[C@@H](O)[C@@H](Cc2ccc(OCP(=O)(OCc3ccccc3)OCc3ccccc3)cc2)N1Cc1ccccc1
EC50 (30N82I88D [8]): 3140 nM | EC50 [6]: > 6000 nM | EC50 (48V54V82A [9]): > 6000 nM | EC50 (WT HIV-1; [22]): 1770 nM

Nc1n[nH]c2ccc(CN3C(=O)N(Cc4cccc(OCP(=O)(OCc5ccccc5)OCc5ccccc5)c4)C(Cc4ccccc4)C(O)C(O)C3Cc3ccccc3)cc12 (centres unmarked)
EC50 (48V54V82A [2]; [19]): 2600 nM | EC50 (30N82I88D [3]; [18]): 705 nM | EC50 (84V90M [1]): > 6000 nM | EC50 (46I50V; [20]): 3120 nM | EC50 (WT; [11]): 898 nM

CCOP(=O)(COc1cccc(CN2C(=O)N(Cc3ccc4[nH]nc(N)c4c3)C(Cc3ccccc3)C(O)C(O)C2Cc2ccccc2)c1)OCC (centres unmarked)
EC50 (48V54V82A [2]; [19]): 513 nM | EC50 (30N82I88D [3]; [18]): 93 nM | EC50 (84V90M [1]): 3010 nM | EC50 (46I50V; [20]): 857 nM | EC50 (WT; [11]): 665 nM

Nc1n[nH]c2ccc(CN3C(=O)N(Cc4ccc(OCP(=O)(OCc5ccccc5)OCc5ccccc5)cc4)C(Cc4ccccc4)C(O)C(O)C3Cc3ccccc3)cc12 (centres unmarked)
EC50 (30N82I88D [3]; [18]): 2120 nM | EC50 (84V90M [1]): 4960 nM | EC50 (WT; [11]): 2700 nM

CCOP(=O)(COc1ccc(CN2C(=O)N(Cc3ccc4[nH]nc(N)c4c3)C(Cc3ccccc3)C(O)C(O)C2Cc2ccccc2)cc1)OCC (centres unmarked)
EC50 (30N82I88D [3]; [18]): 1340 nM | EC50 (84V90M [1]): > 6000 nM | EC50 (WT; [11]): 2480 nM

COc1ccc(S(=O)(=O)N(CC(C)C)C[C@@H](O)[C@H](Cc2ccccc2)NC(=O)O[C@H]2CO[C@H]3OCC[C@H]32)cc1 [94-003, reference compound]
Total No. of Resistant Viruses [10]: 3 | EC50 (WT HIV-1; Human immunodeficiency virus 1, read-out: EC50 [nM] WT HIV-1): 0.5 nM
